# Measurements: PMC6151990, “Effects of P-Glycoprotein on the Transport of DL0410, a Potential Multifunctional Anti-Alzheimer Agent” (Molecules : A Journal of Synthetic Chemistry and Natural …, 2017)
# Structures can show the parent of a compound that is named as a salt.
# What was measured:
# [1] = molecular target: T1, P-gp (Homo sapiens, UniProt P08183); assay: Effect on Rho123 transport (BL to AP) in MDCK-MDR1 cells; format: cell-based; conditions: MDCK-MDR1, Rho123 10 µM, DL0410 50 µM, 2 h
# T1 construct: expressed in transfected cells; host or cells: MDCK-MDR1 (canine kidney MDCK cells transfected with the human MDR1 gene)
# [2] = tested on: P-gp (MDR1); assay: Transcellular transport across MDCK-MDR1 cell monolayer; format: in vitro ADME, Canine; conditions: dog, pH 7.4; MDCK-MDR1, DL0410 10 μM; read-out: ER
# Description: (§2) Caco-2, MDCK and MDCK-MDR1cells were cultured at seeding densities of 1 × 10^5, 2 × 10^5, 2 × 10^5 cells/cm^2, respectively, onto polycarbonate membrane transwell inserts in 12-well plates. Prior to performing the transport studies, we determined the values of Trans Epithelial Electric Resistance (TEER) and Papp values of fluorescein to ensure the integrity of the monolayers [16]. After seeding for 18 and 21 days, the cultural medium of transwell chambers was removed carefully and washed twice with HBSS (pH 7.4, 37 °C), and then pre-incubated for 30 min at 37 °C. The transwell chambers were incubated for 20 min at 37 °C. […] After incubation for 2 h, the liquor of each side was collected for determination.
# (§3) To analyze DL0410 in HBSS buffer, 15 µL of IS working solution (phenacetin, 1 µg/mL) and 150 µL sample were mixed with 1000 µL ethyl acetate to extract the analytes, and then vortexed for 5 min. After centrifuging at 13,000 rpm for 10 min, the supernatant was added into another tube carefully and evaporated to dryness under a gentle flow of nitrogen gas. The residue was reconstituted in 60 µL acetonitrile–water (20:80, v/v, containing 0.5% formic acid). After centrifugation, the supernatant was used for analysis. The analytical column was Agilent Zorbax SD-C18 (100 mm × 2.1 mm, 3.5 µm; Agilent Technologies, Santa Clara, CA, USA). The mobile phase was made up of acetonitrile–water (0.5% formic acid) (20:80, v/v). Injection volume, flow rate, and column temperature were 20 µL, a 0.3 mL/min, and 35 °C, respectively. The mass spectrometer was operated in the positive scan mode. The conditions of ESI source were as follows: drying gas flow was set at 10 L/min, nebulizer pressure was 35.0 psig, capillary voltage was 3000 V, and drying gas temperature was 350 °C. The ESI was performed using nitrogen to assist nebulization.
# (§4) The Papp values (cm/s) were computed according to the following equation [16], Papp=V/C0×1/S×dC/dt (V: volume of medium in the receiver chamber (mL); C0: initial concentration in the donor chamber (µM/mL), S: the surface area of monolayer (cm^2); dC/dt: variance rate in the receptor chamber of concentration with time (µM/mL/s)) The ER was calculated by the Papp value from BL to AP divided by Papp value from AP to BL. In MDCK-MDR1 and MDCK cell models, the NER was measured by comparing the ER values as follows [16]. (1) ER=Papp(B−A)/Papp(A−B) (2) NER=ERMDCK−MDR1/ERMDCK
# [3] = tested on: MDCK-MDR1 cell monolayer; assay: as above; format: in vitro ADME, Canine; conditions: ER MDCK-MDR1 / ER MDCK
# Description: as §2, §3, §4
# [4] = tested on: P-gp; assay: as above; format: in vitro ADME, Canine; conditions: dog, pH 7.4
# Description: as §2, §3, §4
# [5] = tested on: MDCK-MDR1 cells; assay: CCK-8 cytotoxicity assay, MDCK-MDR1; format: cell-based, Canine; conditions: MDCK-MDR1, 100 µM, 12 h
# Description: (§1) The cytotoxicity of DL0410 was determined by the CCK-8 assay. Caco-2 Cells, at a density of 1 × 10^5 cells/mL, were seeded in 96-well plates for culture. The seeding density of MDCK and MDCK-MDR1cells were 0.8 × 10^5 cells/mL. Two days after seeding, increasing concentrations (0.1, 1, 10, 100 µM) of DL0410 were added for treatment, and cytotoxicity was measured after 12 h by the CCK-8 assay.
# [6] = Transcellular transport across MDCK cell monolayer; format: in vitro ADME, Canine; conditions: dog
# Description: as §2, §3, §4
# [7] = molecular target: human P-gp membranes (Homo sapiens, UniProt P08183); assay: P-gp ATPase activity (Pgp-Glo assay); conditions: P-gp ATPase stimulation
# [8] = tested on: MDCK cells; assay: CCK-8 cytotoxicity assay, MDCK; format: cell-based, Canine; conditions: 100 µM, 12 h
# Description: as §1
# [9] = tested on: Caco-2 cells; assay: CCK-8 cytotoxicity assay, Caco-2; format: cell-based, human; conditions: Caco-2, 100 µM, 12 h
# Description: as §1
# [10] = Transcellular transport across Caco-2 cell monolayer; format: in vitro ADME; conditions: human
# Description: as §2, §3, §4
# [11] = Transcellular transport across MDCK-MDR1 cell monolayer; format: in vitro ADME, Canine; conditions: dog; MDCK-MDR1 monolayer, integrity control; read-out: permeability value
# Description: as §2, §3, §4
# [12] = tested on: Caco-2 cell monolayer; assay: Transcellular transport across Caco-2 cell monolayer; format: in vitro ADME; conditions: human, Caco-2
# Description: as §2, §3, §4
# Chain of human P-gp membranes (P08183 whole entry): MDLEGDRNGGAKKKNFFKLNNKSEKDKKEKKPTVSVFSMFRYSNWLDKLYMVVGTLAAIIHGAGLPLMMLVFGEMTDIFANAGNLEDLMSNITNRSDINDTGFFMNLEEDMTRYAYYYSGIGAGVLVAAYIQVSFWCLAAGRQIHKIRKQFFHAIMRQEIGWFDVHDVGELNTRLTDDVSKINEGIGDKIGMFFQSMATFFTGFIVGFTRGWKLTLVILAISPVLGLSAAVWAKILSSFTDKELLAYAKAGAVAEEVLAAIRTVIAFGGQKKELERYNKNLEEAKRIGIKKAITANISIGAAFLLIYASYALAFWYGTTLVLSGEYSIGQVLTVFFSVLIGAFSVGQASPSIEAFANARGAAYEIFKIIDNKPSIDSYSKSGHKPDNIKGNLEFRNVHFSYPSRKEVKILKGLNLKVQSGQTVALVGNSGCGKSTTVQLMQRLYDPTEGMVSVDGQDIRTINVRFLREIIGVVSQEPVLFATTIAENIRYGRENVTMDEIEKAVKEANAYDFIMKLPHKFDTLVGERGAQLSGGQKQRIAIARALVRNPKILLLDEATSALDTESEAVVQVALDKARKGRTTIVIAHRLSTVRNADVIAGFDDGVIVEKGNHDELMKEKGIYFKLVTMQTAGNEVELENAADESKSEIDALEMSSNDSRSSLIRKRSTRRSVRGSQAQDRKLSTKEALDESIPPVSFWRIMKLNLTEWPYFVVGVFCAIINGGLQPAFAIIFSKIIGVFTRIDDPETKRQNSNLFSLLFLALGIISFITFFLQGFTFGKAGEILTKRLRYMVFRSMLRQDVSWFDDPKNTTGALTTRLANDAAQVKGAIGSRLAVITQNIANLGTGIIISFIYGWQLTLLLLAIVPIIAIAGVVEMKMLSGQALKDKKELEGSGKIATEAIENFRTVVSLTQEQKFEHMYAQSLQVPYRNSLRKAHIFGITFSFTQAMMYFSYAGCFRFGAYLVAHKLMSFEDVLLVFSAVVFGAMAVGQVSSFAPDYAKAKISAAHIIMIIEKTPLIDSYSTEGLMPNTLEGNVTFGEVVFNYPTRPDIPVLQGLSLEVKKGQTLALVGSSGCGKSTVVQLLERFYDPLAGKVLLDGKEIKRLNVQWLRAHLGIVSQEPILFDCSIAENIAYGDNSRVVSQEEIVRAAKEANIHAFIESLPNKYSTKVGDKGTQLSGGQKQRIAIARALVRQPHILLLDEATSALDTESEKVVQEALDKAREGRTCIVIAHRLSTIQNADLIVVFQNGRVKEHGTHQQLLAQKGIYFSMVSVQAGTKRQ
# T1 sequence (P08183 whole entry): as above
structure (smiles),measurement,setting,value
"O=C(CCN1CCCCC1)c1ccc(-c2ccc(C(=O)CCN3CCCCC3)cc2)cc1 [DL0410, 1,1’-([1,1’-Biphenyl]-4,4’-diyl)bis(3-(piperidin-1-yl)propan-1-one)dihydrochloride]",effect on Rho123 transport from BL to AP,[1],reduced Rho123 efflux
same,"efflux ratio at 2 h, 10 µM",[2],14.9
same,NER,[3]; DL0410 10 μM,10.588
same,NER,[3]; DL0410 30 μM,8.770
same,NER,[3]; DL0410 30 μM + verapamil (50 μM),0.311
same,NER,[3]; DL0410 100 μM,5.556
same,"Papp A→B at 2 h, 10 µM","[4]; MDCK-MDR1, DL0410 10 μM",0.297 ± 0.111 ×10⁻⁶ cm/s
same,"Papp B→A at 2 h, 10 µM","[4]; MDCK-MDR1, DL0410 10 μM",4.43 ± 0.376 ×10⁻⁶ cm/s
same,"Papp A→B at 2 h, 30 µM","[4]; MDCK-MDR1, DL0410 30 μM",0.31 ± 0.021 ×10⁻⁶ cm/s
same,"Papp B→A at 2 h, 30 µM","[4]; MDCK-MDR1, DL0410 30 μM",3.21 ± 0.061 ×10⁻⁶ cm/s
same,"efflux ratio at 2 h, 30 µM","[4]; MDCK-MDR1, DL0410 30 μM, read-out: ER",10.3
same,"Papp A→B at 2 h, 100 µM","[4]; MDCK-MDR1, DL0410 100 μM",0.321 ± 0.039 ×10⁻⁶ cm/s
same,"Papp B→A at 2 h, 100 µM","[4]; MDCK-MDR1, DL0410 100 μM",1.73 ± 0.105 ×10⁻⁶ cm/s
same,"efflux ratio at 2 h, 100 µM","[4]; MDCK-MDR1, DL0410 100 μM, read-out: ER",5.41
same,cytotoxicity,[5],no significant cytotoxic effect
same,efflux ratio at 2 h,"[6]; pH 7.4, MDCK cells, summary value in text, read-out: ER",~1
same,"Papp A→B at 2 h, 10 µM","[6]; pH 7.4, MDCK, DL0410 10 μM",0.502 ± 0.103 ×10⁻⁶ cm/s
same,"Papp B→A at 2 h, 10 µM","[6]; pH 7.4, MDCK, DL0410 10 μM",0.708 ± 0.114 ×10⁻⁶ cm/s
same,"efflux ratio at 2 h, 10 µM","[6]; pH 7.4, MDCK, DL0410 10 μM, read-out: ER",1.41
same,"Papp A→B at 2 h, 30 µM","[6]; pH 7.4, MDCK, DL0410 30 μM",0.74 ± 0.023 ×10⁻⁶ cm/s
same,"Papp B→A at 2 h, 30 µM","[6]; pH 7.4, MDCK, DL0410 30 μM",0.871 ± 0.068 ×10⁻⁶ cm/s
same,"efflux ratio at 2 h, 30 µM","[6]; pH 7.4, MDCK, DL0410 30 μM, read-out: ER",1.18
same,"Papp A→B at 2 h, 100 µM","[6]; pH 7.4, MDCK, DL0410 100 μM",0.95 ± 0.116 ×10⁻⁶ cm/s
same,"Papp B→A at 2 h, 100 µM","[6]; pH 7.4, MDCK, DL0410 100 μM",0.924 ± 0.005 ×10⁻⁶ cm/s
same,"efflux ratio at 2 h, 100 µM","[6]; pH 7.4, MDCK, DL0410 100 μM, read-out: ER",0.973
same,concentration at which the activity of ATPase was saturated,[7],150 µM
same,cytotoxicity,[8],no significant cytotoxic effect
same,cytotoxicity,[9],no significant cytotoxic effect
same,"Papp A→B at 2 h, 10 µM","[10]; pH 7.4, Caco-2, DL0410 10 μM",0.725 ± 0.184 ×10⁻⁶ cm/s
same,"Papp B→A at 2 h, 10 µM","[10]; pH 7.4, Caco-2, DL0410 10 μM",3.27 ± 0.251 ×10⁻⁶ cm/s
same,"efflux ratio at 2 h, 10 µM","[10]; pH 7.4, Caco-2, DL0410 10 μM, read-out: ER",4.52
same,"Papp A→B at 2 h, 30 µM","[10]; pH 7.4, Caco-2, DL0410 30 μM",0.841 ± 0.098 ×10⁻⁶ cm/s
same,"Papp B→A at 2 h, 30 µM","[10]; pH 7.4, Caco-2, DL0410 30 μM",3.45 ± 0.619 ×10⁻⁶ cm/s
same,"efflux ratio at 2 h, 30 µM","[10]; pH 7.4, Caco-2, DL0410 30 μM, read-out: ER",4.1
same,"Papp A→B at 2 h, 100 µM","[10]; pH 7.4, Caco-2, DL0410 100 μM",1.28 ± 0.017 ×10⁻⁶ cm/s
same,"Papp B→A at 2 h, 100 µM","[10]; pH 7.4, Caco-2, DL0410 100 μM",2.38 ± 0.138 ×10⁻⁶ cm/s
same,"efflux ratio at 2 h, 100 µM","[10]; pH 7.4, Caco-2, DL0410 100 μM, read-out: ER",1.86
same,Papp at 2 h,"[10]; pH 7.4, Caco-2, summary value in text (A→B), read-out: apparent permeability (Papp)",~1 ×10⁻⁶ cm/s
"COc1ccc(CCN(C)CCCC(C#N)(c2ccc(OC)c(OC)c2)C(C)C)cc1OC (stereo not shown) [Verapamil, reference compound]",concentration at which the activity of ATPase was saturated,[7],100 µM
"O=C1OC2(c3ccc(O)cc3Oc3cc(O)ccc32)c2ccccc21 [fluorescein, reference compound]",Papp,[11],0.571 ×10⁻⁶ cm/s
same,Papp,"[6]; MDCK monolayer, integrity control, read-out: permeability value",0.702 ×10⁻⁶ cm/s
same,penetration rate,[12],0.10%
same,Papp,"[10]; Caco-2 monolayer, integrity control, read-out: apparent permeability (Papp)",1.09 ×10⁻⁶ cm/s
